One experiment deals with MDA468. The experiment is described as follows: In vitro cell culture growth assay (MTS). Type of experiment: cell-based. Particulars: Homo sapiens, 72 h, breast line MDA468, three days after drug treatment. Here is the method:
In Vitro Cell Culture Growth Assay Methods:
Human tumor cell lines used include prostate lines LNCap and PC3MM2, breast lines MDA468, MCF7, renal line HTB44 (A498), colon line HCT116, and ovarian line OVCAR3. Cells were plated in 96-well culture plates. One day following plating, the inhibitors were added to cells. Three days after drug treatment, viable cell densities were determined by metabolic conversion (by viable cells) of the dye MTS, a well-established cell proliferation assay. The assays were performed using an assay kit purchased from Promega Corp. (Madison, Wis.) following the protocol supplied with the kit. The MTS assay results were read in a 96-well plate reader by measuring absorbance at 490 nm. The effect of each treatment was calculated as percent of control growth relative to the vehicle-treated cells grown in the same culture plate. The drug concentration that conferred 50% inhibition of growth was determined as IC50 (μg/ml).

The target in another experiment is T1, Human mTOR (Homo sapiens, UniProt P42345).
T1 construct: FLAG
The experiment is described as follows: mTOR kinase assay (DELFIA format, purified enzyme). The class given is biochemical. Conditions: His6-S6K substrate, read-out: TOR Kinase IC50. How it is done:
mTOR Kinase Assay Methods
Human mTOR assays (See Toral-Barza, et al. Biochem Biophys. Res. Commun. 2005 Jun. 24; 332(1):304-10) with purified enzyme are performed in 96-well plates by DELFIA format as follows. Enzymes are first diluted in kinase assay buffer (10 mM HEPES (pH 7.4), 50 mM NaCl, 50 mM β-glycerophosphate, 10 mM MnCl2, 0.5 mM DTT, 0.25 mM microcystin LR, and […]). To each well, 12 μL of the diluted enzyme is mixed briefly with 0.5 μL test inhibitor or control vehicle dimethylsulfoxide (DMSO). The kinase reaction is initiated by adding 12.5 μL kinase assay buffer containing ATP and His6-S6K to give a final reaction volume of 25 μL containing 800 ng/mL FLAG-TOR, […] and […]. The reaction plate is incubated for 2 hours (linear at 1-6 hours) at room temperature with gentle shaking and then terminated by adding 25 μL Stop buffer (20 mM HEPES (pH 7.4), 20 mM EDTA, 20 mM EGTA). The DELFIA detection of the phosphorylated (Thr-389) His6-S6K is performed at room temperature using a monoclonal anti-P(T389)-p70S6K antibody (1A5, Cell Signaling) labeled with Europium-N1-ITC (Eu) (10.4 Eu per antibody, PerkinElmer). The DELFIA Assay buffer and Enhancement solution can be purchased from PerkinElmer. 45 μL of the terminated kinase reaction mixture is transferred to a MaxiSorp plate (Nunc) containing 55 μL PBS. The His6-S6K is allowed to attach for 2 hours after which the wells are aspirated and washed once with PBS. 100 μL of DELFIA Assay buffer with 40 ng/mL Eu-P(T389)-S6K antibody is added. The antibody binding is continued for 1 hour with gentle agitation. The wells are then aspirated and washed 4 times with PBS containing 0.05% Tween-20 (PBST). 100 μL of DELFIA Enhancement solution is added to each well and the plates are read in a PerkinElmer Victor model plate reader. Data obtained is used to calculate enzymatic activity and enzyme inhibition by potential inhibitors.

The target of a further experiment is PI3 Kinase α (Homo sapiens, UniProt P42336). The experiment is described as follows: Fluorescence polarization assay for PI3K. Type of experiment: biochemical. How it is done:
(§1) Fluorescence Polarization Assay for PI3K
(§2) This assay is used to determine the IC50 of compounds of the present invention as it identifies inhibitors of PI3 kinase by measuring inhibition.
(§3) Reaction Buffer: 20 mM HEPES, pH 7.5, 2 mM MgCl2, 0.05% CHAPS; and 0.01% BME (added fresh) Stop/Detection Buffer: 100 mM HEPES, pH 7.5, 4 mM EDTA, 0.05% CHAPS; ATP 20 mM in water; PIP2 (diC8, cat# P-4508) 1 mM in water (MW=856.5); GST-GRP 1.75 mg/mL or 1.4 mg/mL in 10% glycerol; Red detector (TAMRA) 2.5 μM; Plate: Nunc 384 well black polypropylene fluorescence plate.
(§4) The assay is run by placing 5 μL of diluted enzyme per well, then 5 μL of diluted compound (or 9.5 μL enzyme then 0.5 μL compound in DMSO) is added and mixed. Then, 10 μL substrate is added to start the reaction. The samples are incubated 30-60 minutes, then the reaction is stopped by adding 20 μL stop/detector mix. PI3K is diluted with reaction buffer (e.g., 5 μL or 7.5 μL PI3K into 620 μL reaction buffer), and 5 μL of diluted enzyme is used per well. 5 μL reaction buffer or drug diluted in buffer (e.g., 4 μL/100 so final DMSO is 1% in reaction) is added to each. Pipetting up and down mixes the samples. Alternatively, the enzyme can be diluted to 1215 μL. In this case 9.8 μL is added per well and 0.2 μL compound is added in DMSO. To prepare 1 mL of substrate solution, 955 μL reaction buffer, 40 μL PIP2, and 2.5 μL ATP are mixed. 10 μL of substrate is added to each well to start the reaction.
(§5) Stop/detector mix is prepared by mixing 4 μL Red detector and 1.6 μL or 2.0 μL GST-GRP with 1 mL Stop buffer, which results in 10 nM probe and 70 nM GST-GRP). 20 μL of the stop/detector mix is added to each well to stop the reaction. The plates are read after 30-90 minutes keeping the red probe solutions dark. For the zero time point, stop/detector mix is added to the enzyme just before adding substrate. For an extra control, stop/detector mix is added to buffer (no enzyme) and substrate or to just buffer (no substrate). […] The recommended reaction has 0.06 μL per 20 μL (0.015 μg/20 μL) or 0.01125 μg/15 μL or 0.75 μg/mL. Plates are read on machines with filters for Tamra. The units are mP with no enzyme controls reading app 190-220 mP units. Fully active enzyme reduces fluorescence polarization down to 70-100 mP after 30 minutes. An active compound raises the mP values halfway to control or to 120-150 mP units.
For orientation: Fluorescence polarisation rises when a labelled molecule tumbles more slowly, as on binding a larger partner.

A further experiment has as its target PI3 Kinase γ (Homo sapiens, UniProt P48736). The experiment is described as follows: Fluorescence polarization assay for PI3K. Type of experiment: biochemical. How it is done: as §1, §2, §3, §4, §5
The subject of the next experiment is LNCap. The experiment can be described thus: In vitro cell culture growth assay (MTS). Type of experiment: cell-based. Particulars: Homo sapiens, 72 h, prostate line LNCap, three days after drug treatment.

Chain of PI3 Kinase α (P42336 whole entry): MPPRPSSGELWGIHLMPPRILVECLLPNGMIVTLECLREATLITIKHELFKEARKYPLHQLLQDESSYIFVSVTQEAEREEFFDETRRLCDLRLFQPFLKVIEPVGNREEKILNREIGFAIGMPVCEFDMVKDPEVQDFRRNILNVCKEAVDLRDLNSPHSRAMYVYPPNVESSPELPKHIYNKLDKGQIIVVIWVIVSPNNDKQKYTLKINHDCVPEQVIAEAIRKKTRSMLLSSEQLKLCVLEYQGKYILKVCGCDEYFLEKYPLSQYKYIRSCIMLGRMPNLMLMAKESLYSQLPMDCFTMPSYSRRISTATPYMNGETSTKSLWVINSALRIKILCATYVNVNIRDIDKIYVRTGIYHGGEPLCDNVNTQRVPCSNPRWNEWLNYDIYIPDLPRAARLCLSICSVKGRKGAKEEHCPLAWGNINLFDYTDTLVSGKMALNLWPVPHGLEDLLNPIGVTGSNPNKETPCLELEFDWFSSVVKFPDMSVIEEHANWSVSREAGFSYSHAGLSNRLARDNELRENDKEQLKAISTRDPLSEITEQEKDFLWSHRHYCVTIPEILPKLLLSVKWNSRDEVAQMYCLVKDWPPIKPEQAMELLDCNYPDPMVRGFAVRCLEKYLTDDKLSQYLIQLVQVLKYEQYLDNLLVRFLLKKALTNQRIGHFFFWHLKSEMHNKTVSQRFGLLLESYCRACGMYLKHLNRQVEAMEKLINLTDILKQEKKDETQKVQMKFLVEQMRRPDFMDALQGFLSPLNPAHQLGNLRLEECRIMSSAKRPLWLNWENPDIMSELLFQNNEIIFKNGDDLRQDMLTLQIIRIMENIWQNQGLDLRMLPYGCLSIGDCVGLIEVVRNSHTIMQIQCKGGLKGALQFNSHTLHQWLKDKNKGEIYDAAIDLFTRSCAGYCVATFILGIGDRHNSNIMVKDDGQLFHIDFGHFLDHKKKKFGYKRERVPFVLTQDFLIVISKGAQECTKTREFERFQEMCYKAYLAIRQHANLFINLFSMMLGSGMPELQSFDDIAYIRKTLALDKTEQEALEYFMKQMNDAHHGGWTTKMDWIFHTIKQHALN
Chain of PI3 Kinase α (P27986 whole entry partner): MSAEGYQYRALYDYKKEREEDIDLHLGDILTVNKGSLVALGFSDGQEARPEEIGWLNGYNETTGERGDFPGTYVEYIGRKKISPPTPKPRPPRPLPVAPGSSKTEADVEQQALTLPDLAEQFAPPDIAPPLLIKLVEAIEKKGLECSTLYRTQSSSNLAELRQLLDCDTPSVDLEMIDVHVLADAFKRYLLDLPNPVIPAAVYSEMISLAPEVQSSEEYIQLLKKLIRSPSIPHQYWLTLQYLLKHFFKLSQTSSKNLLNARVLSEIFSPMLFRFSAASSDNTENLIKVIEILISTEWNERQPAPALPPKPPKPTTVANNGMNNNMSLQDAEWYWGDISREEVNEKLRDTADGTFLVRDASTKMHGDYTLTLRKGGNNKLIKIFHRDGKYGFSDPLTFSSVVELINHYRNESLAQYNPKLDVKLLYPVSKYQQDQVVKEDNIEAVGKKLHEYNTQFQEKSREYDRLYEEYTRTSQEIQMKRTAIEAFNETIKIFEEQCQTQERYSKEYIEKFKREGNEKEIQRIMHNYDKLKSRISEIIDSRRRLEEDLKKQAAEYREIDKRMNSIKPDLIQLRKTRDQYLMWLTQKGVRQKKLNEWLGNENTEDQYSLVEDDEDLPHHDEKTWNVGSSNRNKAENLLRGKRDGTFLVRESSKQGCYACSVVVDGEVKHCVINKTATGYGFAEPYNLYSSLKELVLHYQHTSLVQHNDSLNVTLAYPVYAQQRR
Chain of PI3 Kinase γ (P48736 whole entry): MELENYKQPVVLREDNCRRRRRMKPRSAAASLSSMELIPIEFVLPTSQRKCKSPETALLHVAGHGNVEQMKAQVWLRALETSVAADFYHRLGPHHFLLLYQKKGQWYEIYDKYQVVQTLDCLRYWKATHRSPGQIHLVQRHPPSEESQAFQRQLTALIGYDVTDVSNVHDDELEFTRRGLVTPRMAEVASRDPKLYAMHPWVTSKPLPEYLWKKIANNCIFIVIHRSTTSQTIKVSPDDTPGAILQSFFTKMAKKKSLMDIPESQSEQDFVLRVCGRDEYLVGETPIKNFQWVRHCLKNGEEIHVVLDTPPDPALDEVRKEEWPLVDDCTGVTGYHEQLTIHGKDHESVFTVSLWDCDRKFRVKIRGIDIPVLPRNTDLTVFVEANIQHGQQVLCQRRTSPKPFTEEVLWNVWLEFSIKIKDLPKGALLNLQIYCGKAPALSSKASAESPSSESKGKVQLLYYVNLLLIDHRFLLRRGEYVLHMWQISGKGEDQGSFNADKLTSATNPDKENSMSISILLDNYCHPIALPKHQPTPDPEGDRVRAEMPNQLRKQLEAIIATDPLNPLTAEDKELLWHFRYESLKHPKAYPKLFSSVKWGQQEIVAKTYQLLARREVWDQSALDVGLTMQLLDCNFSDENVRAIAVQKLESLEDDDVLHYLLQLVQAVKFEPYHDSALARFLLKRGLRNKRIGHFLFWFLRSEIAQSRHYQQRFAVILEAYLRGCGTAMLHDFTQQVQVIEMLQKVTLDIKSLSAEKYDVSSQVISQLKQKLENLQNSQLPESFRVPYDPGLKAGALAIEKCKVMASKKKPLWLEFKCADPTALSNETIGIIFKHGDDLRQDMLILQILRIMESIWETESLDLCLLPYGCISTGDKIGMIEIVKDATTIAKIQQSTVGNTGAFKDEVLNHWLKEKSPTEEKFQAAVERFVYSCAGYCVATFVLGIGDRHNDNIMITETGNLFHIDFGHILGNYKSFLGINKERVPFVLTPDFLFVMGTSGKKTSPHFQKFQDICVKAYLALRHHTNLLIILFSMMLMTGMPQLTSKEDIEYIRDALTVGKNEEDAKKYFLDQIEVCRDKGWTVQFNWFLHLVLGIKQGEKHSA

By IC50 is commonly meant the concentration needed to halve the response being measured. In the case of `CNC(=O)Nc1ccc(-c2nc(C3=CCOCC3)c3cnn(CC(F)(F)F)c3n2)cc1` [Compound 6, 1-{4-[4-(3,6-dihydro-2H-pyran-4-yl)-1-(2,2,2-trifluoroethyl)-1H-pyrazolo[3,4-d]pyrimidin-6-yl]phenyl}-3-methylurea], the IC50 came to 950 nM in the experiment with MDA468; 2.4 nM on Human mTOR; 212 nM against PI3 Kinase α; 3030 nM at PI3 Kinase γ; 260 nM with LNCap.
Turning to `CC(=O)Nc1ccc(-c2nc(C3=CCOCC3)c3cnn(C4CCN(Cc5ccccc5)CC4)c3n2)cc1` [Compound 3, N-{4-[1-(1-benzylpiperidin-4-yl)-4-(3,6-dihydro-2H-pyran-4-yl)-1H-pyrazolo[3,4-d]pyrimidin-6-yl]phenyl}acetamide], the IC50 in the experiment on MDA468 is 11000 nM; at Human mTOR, 230 nM; against PI3 Kinase α, 3090 nM; against PI3 Kinase γ, 3020 nM; in the experiment with LNCap, 5000 nM.
As for `O=C(Nc1ccc(-c2nc(C3=CCOCC3)c3cnn(CC(F)(F)F)c3n2)cc1)OCCO` [Compound 10a, 2-hydroxyethyl {4-[4-(3,6-dihydro-2H-pyran-4-yl)-1-(2,2,2-trifluoroethyl)-1H-pyrazolo[3,4-d]pyrimidin-6-yl]phenyl}carbamate], the IC50 turned out to be 1200 nM in the experiment with MDA468; 3550 nM at Human mTOR; 696 nM on PI3 Kinase α; 3360 nM at PI3 Kinase γ; 170 nM in the experiment with LNCap.
With `CNC(=O)Nc1ccc(-c2nc(C3=CCOCC3)c3cnn(C4CCN(Cc5cccnc5)CC4)c3n2)cc1` [Compound 4, 1-(4-{4-(3,6-dihydro-2H-pyran-4-yl)-1-[1-(pyridin-3-ylmethyl)piperidin-4-yl]-1H-pyrazolo[3,4-d]pyrimidin-6-yl}phenyl)-3-methylurea], the concentration for half-maximal inhibition (IC50) in the experiment with MDA468 amounted to 4200 nM; on Human mTOR, 17 nM; at PI3 Kinase α it was 2820 nM; against PI3 Kinase γ, 3220 nM; in the experiment with LNCap, 900 nM.
Taken in the same sequence, the figures for `O=C(NCCF)Nc1ccc(-c2nc(C3=CCOCC3)c3cnn(CC(F)(F)F)c3n2)cc1` [Compound 7, 1-{4-[4-(3,6-dihydro-2H-pyran-4-yl)-1-(2,2,2-trifluoroethyl)-1H-pyrazolo[3,4-d]pyrimidin-6-yl]phenyl}-3-(2-fluoroethyl)urea] were 220 nM, 1.4 nM, 2330 nM, 1010 nM and 72 nM.
Taken in the same sequence, the figures for `CNC(=O)Nc1ccc(-c2nc(C3=CCOCC3)c3cnn(C4CCN(C(=O)c5cccnc5)CC4)c3n2)cc1` [Compound 5, 1-(4-{4-(3,6-dihydro-2H-pyran-4-yl)-1-[1-(pyridin-3-ylcarbonyl)piperidin-4-yl]-1H-pyrazolo[3,4-d]pyrimidin-6-yl}phenyl)-3-methylurea] were 4000 nM, 8.4 nM, 2100 nM, 1180 nM and 2800 nM.
`O=C(Nc1ccccc1)Nc1ccc(-c2nc(C3=CCOCC3)c3cnn(CC(F)(F)F)c3n2)cc1` [Compound 9, 1-{4-[4-(3,6-dihydro-2H-pyran-4-yl)-1-(2,2,2-trifluoroethyl)-1H-pyrazolo[3,4-d]pyrimidin-6-yl]phenyl}-3-phenylurea]: the IC50 in the experiment on MDA468 turned out to be 230 nM; at Human mTOR, 2.6 nM; at PI3 Kinase α, 43 nM; at PI3 Kinase γ, 74 nM; in the experiment with LNCap it was 96 nM.
Taken in the same sequence, the figures for `Oc1cccc(-c2nc(C3CCOCC3)c3cnn(-c4ccccc4)c3n2)c1` [Compound 2, 3-[1-phenyl-4-(tetrahydro-2H-pyran-4-yl)-1H-pyrazolo[3,4-d]pyrimidin-6-yl]phenol] were 50000 nM, 670 nM, 855 nM, more than 10000 nM and 11000 nM.
Regarding `Oc1cccc(-c2nc(C3=CCOCC3)c3ncn(C4CCN(Cc5cnc[nH]5)CC4)c3n2)c1` [Compound 17, 3-{6-(3,6-dihydro-2H-pyran-4-yl)-9-[1-(1H-imidazol-5-ylmethyl)piperidin-4-yl]-9H-purin-2-yl}phenol], the IC50 on Human mTOR amounted to 1200 nM; against PI3 Kinase α it was 1060 nM; at PI3 Kinase γ, 2580 nM.
Regarding `O=c1[nH]c2nc(-c3cccc(O)c3)nc(C3=CCOCC3)c2[nH]1` [Compound 67, 6-(3,6-dihydro-2H-pyran-4-yl)-2-(3-hydroxyphenyl)-7,9-dihydro-8H-purin-8-one], the IC50 is more than 10000 nM in the experiment on MDA468, 280 nM at Human mTOR, 169 nM on PI3 Kinase α and 414 nM on PI3 Kinase γ.
In the case of `COc1ncccc1CN1CCC(n2cnc3c(C4=CCOCC4)nc(-c4cncc(O)c4)nc32)CC1` [Compound 36, 5-[6-(3,6-dihydro-2H-pyran-4-yl)-9-{1-[(2-methoxypyridin-3-yl)methyl]piperidin-4-yl}-9H-purin-2-yl]pyridin-3-ol], the IC50 at Human mTOR was found to be 2800 nM; at PI3 Kinase α it was 506 nM; against PI3 Kinase γ, 2480 nM.
Consider `Oc1cccc(-c2nc(C3=CCOCC3)c3nn[nH]c3n2)c1` [Compound 48, 3-[7-(3,6-dihydro-2H-pyran-4-yl)-3H-[1,2,3]triazolo[4,5-d]pyrimidin-5-yl]phenol], for which the figures for the IC50 at Human mTOR, against PI3 Kinase α and on PI3 Kinase γ were 32 nM, 93 nM and 257 nM, respectively.
Regarding `Oc1cncc(-c2nc(C3=CCOCC3)c3ncn(C4CCN(Cc5ccc(Cl)nc5)CC4)c3n2)c1` [Compound 37, 5-[9-{1-[(6-chloropyridin-3-yl)methyl]piperidin-4-yl}-6-(3,6-dihydro-2H-pyran-4-yl)-9H-purin-2-yl]pyridin-3-ol], the half-inhibitory concentration (IC50) at Human mTOR is 1600 nM; against PI3 Kinase α it was 437 nM; on PI3 Kinase γ, 719 nM.

The record behind these values is patent US20090192176A1, “1H-PYRAZOLO[3,4-D]PYRIMIDINE, PURINE, 7H-PURIN-8(9H)-ONE, 3H-[1,2,3]TRIAZOLO[4,5-D]PYRIMIDINE, AND THIENO[3,2-D]PYRIMIDINE COMPOUNDS, THEIR USE AS mTOR KINASE AND PI3 KINASE INHIBITORS, AND THEIR SYNTHESES” (Wyeth, priority 2008, published 2009).
